From paper PMC4402584, “New Diterpenes from Cultures of the Fungus Engleromyces goetzii and Their CETP Inhibitory Activity” (Natural Products and Bioprospecting, 2015)

Molecular target: T1, cholesterol ester transfer protein (CETP) (Oryctolagus cuniculus, UniProt P22687)
T1 sequence (P22687 2-497): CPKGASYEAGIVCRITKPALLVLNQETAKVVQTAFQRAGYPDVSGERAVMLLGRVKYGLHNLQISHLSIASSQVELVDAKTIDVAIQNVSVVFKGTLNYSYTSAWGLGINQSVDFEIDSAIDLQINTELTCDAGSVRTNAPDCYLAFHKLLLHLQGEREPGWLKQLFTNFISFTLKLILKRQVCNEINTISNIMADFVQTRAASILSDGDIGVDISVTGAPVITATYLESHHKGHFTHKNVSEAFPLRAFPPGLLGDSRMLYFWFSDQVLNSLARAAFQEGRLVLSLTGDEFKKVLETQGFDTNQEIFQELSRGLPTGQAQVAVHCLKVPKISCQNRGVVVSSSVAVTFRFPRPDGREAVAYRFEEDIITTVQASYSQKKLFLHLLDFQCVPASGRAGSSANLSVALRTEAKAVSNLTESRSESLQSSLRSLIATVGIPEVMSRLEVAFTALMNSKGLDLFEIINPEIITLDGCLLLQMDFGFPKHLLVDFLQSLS
Assay: fluorescent neutral lipid transfer assay (BioVision CETP Inhibitor Screening Kit) with rabbit serum as CETP source
Type: biochemical

IC50: 7.55 µM
Structure (SMILES): C=C[C@@H]1C(=C)CC[C@H]2[C@H]1CC[C@@H]1[C@]2(C)C[C@@H](O)C[C@]1(C)C(=O)O [compound 1, engleromycenolic acid A]
